What was measured:
Assay in all cases: target protein degradation by immunoblotting (Experimental Example 6)
[1] = tested on: CK2; format: cell-based, human; details: HEK293T cell line, 24 hours
Experimental: (§1) In order to evaluate the target proteion degradation efficacy by Examples 14 to 33 according the disclosure, the following experiment was conducted.
(§2) First, as cell lines primarily expressing the target protein, Human kidney-derived cancer cells, HEK293T (ATCC, CRL-3216), human prostate-derived cancer cells, LNcap (Korean Cell Line Bank, Korean Cell Line Research Foundation, KCLB No. 80018), mouse embryonic fibroblast, MEF (ATCC, SCRC-1008), human cervical cancer cells, HeLa (Korean Cell Line Bank, Korean Cell Line Research Foundation, KCLB No. 10002), human blood-derived cells, K562 (Korean Cell Line Bank, Korean Cell Line Research Foundation, KCLB No. 10243), human blood-derived cells, THP-1 (Korean Cell Line Bank, Korean Cell Line Research Foundation, KCLB No. 40202), human lung-derived cancer cells, A549 (Korean Cell Line Bank, Korean Cell Line Research Foundation, KCLB No. 10185), human breast-derived cancer cells, MCF7 (Korean Cell Line Bank, Korean Cell Line Research Foundation, KCLB No. 30022), human neuroblastoma, SH-SY5Y cell lines (Korean Cell Line Bank, Korean Cell Line Research Foundation, KCLB No. 22266), human pancreatic cancer cells, PANC-1 (Korean Cell Line Bank, Korean Cell Line Research Foundation, KCLB No. 21469) were cultured, respectively, in an incubator maintained at 5% carbon dioxide, using DMEM containing 10% FBS and 1% streptomycin/penicillin, RPMI1640, or MEM medium, and then the respective cells were dispensed in 12-well plate. Additional incubation was performed for 24 hours to ensure that each cell completely fixed to the surface of the plate.
(§3) In order to confirm whether Compounds A to W of Examples 14 to 33 degrade the target protein respectively, the cultured cells were treated with the compound of each example for 24 hours and then collected.
(§4) In this case, HEK293T, which is human kidney-derived cancer cells, LNcap, which is human prostate-derived cancer cells, and MEF cell line, which is mouse embryonic fibroblasts, were treated with Example 14 (Compound A). HEK293T, which is human kidney-derived cancer cells, was treated with Example 15 (Compound B). HEK293T cell line, which is human kidney-derived cancer cells, and HeLa cell line, which is cervical-derived cancer cells, were treated with Example 16 (Compound C). HEK293T cell line, which is human kidney-derived cancer cells, was treated with Example 17 (Compound D). K562 cell line, which is human blood-derived cells, was treated with Example 18 (Compound E). HEK293T cell line, which is human kidney-derived cancer cells, was treated with Example 19 (Compound F). THP-1 cell line, which is human blood-derived cells, was treated with Example 20 (Compound G). A549 cell line, which is human lung-derived cancer cells, was treated with Example 21 (Compound H). A549 cell line, which is human lung-derived cancer cells, was treated with Example 22 (Compound I). MCF7 cell line, which is human breast-derived cancer cells, was treated with Example 23 (Compound J). HEK293T cell line, which is […], was treated with Example 24 (Compound L). SH-SY5Y, which is human neuroblastoma, and HeLa cell line, which is cervical-derived cancer cells, were treated with Example 25 (Compound M). THP-1 cell line, which is human blood-derived cells, was treated with Example 26 (Compound P). SH-SY5Y, which is human neuroblastoma, and HeLa cell line, which is cervical-derived cancer cells, were treated with Example 27 (Compound Q). SH-SY5Y, which is human neuroblastoma, and HeLa cell line, which is cervical-derived cancer cells, were treated with Example 28 (Compound R). HeLa cell line, a human cervical-derived cancer cell, was treated with Example 29 (Compound S). SH-SY5Y cell line, which is human neuroblastoma, was treated with Example 30 (Compound T). SH-SY5Y cell line, which is human neuroblastoma, was treated with Example 31 (Compound U). PANC-1 cell line, which is human pancreatic-derived cancer cells, was treated with Example 32 (Compound V). […]

[2] = tested on: Bcl-2; format: cell-based, human; details: HEK293T cell line, 24 hours
Experimental: as §1, §2, §3, §4

[3] = biological target: T1, ERα (Homo sapiens, UniProt P03372); format: cell-based; details: MCF7 cell line, 24 hours
T1 construct: as cell lines primarily expressing the target protein; endogenous in cells; host or cells: MCF7
Experimental: as §1, §2, §3, §4

[4] = biological target: T2, c-Abl (Homo sapiens, UniProt P00519); format: cell-based; details: K562 cell line, 24 hours
T2 construct: as cell lines primarily expressing the target protein; endogenous in cells; host or cells: K562
Experimental: as §1, §2, §3, §4

[5] = biological target: T3, BCR-Abl (Homo sapiens, UniProt P00519); format: cell-based; details: K562 cell line, 24 hours
T3 construct: BCR (N-terminal fusion partner, P11274); endogenous in cells; host or cells: K562; the other entry of the earlier key: BCR (P11274, Breakpoint cluster region protein)
Experimental: as §1, §2, §3, §4

T2 sequence (P00519 whole entry): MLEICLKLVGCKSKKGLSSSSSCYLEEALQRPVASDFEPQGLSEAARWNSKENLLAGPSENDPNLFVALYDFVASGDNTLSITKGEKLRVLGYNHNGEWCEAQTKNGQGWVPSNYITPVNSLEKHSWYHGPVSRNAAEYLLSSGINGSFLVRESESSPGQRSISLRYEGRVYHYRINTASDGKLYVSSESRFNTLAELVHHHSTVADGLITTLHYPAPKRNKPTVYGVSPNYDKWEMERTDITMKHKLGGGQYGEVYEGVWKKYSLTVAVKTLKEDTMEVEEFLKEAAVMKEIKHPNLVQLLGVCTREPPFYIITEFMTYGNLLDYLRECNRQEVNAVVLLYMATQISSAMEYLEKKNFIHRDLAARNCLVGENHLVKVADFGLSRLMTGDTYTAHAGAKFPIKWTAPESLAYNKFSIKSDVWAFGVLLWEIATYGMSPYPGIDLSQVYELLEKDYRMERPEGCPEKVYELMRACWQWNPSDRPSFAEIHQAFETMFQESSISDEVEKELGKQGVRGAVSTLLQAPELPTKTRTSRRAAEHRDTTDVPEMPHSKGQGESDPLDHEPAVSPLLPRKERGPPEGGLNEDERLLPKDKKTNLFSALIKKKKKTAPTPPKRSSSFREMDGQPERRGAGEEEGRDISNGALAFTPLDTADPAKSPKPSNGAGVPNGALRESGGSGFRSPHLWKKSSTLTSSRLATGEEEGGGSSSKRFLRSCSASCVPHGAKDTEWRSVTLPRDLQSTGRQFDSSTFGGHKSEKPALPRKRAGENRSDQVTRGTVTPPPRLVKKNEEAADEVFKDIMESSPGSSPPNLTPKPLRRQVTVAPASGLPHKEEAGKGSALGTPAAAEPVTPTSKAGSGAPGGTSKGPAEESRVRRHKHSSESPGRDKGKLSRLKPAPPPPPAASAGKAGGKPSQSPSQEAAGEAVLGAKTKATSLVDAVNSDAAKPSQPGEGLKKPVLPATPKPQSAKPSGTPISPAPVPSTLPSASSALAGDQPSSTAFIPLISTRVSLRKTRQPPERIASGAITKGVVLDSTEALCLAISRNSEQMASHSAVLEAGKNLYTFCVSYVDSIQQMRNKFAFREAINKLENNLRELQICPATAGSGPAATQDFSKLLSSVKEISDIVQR
T2 sequence (Q13501 2-440 partner limits assumed): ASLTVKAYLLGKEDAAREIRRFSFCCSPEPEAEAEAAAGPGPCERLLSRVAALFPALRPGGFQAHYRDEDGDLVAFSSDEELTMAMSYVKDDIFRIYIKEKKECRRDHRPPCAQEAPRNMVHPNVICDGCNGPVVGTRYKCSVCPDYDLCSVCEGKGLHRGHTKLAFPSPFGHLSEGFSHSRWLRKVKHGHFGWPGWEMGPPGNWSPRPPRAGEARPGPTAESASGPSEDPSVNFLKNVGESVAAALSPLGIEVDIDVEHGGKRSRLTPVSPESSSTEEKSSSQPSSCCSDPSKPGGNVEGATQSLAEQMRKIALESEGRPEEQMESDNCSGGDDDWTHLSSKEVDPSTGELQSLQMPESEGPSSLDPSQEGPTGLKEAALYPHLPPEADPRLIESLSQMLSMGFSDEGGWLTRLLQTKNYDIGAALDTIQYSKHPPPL
T1 sequence (P03372 whole entry): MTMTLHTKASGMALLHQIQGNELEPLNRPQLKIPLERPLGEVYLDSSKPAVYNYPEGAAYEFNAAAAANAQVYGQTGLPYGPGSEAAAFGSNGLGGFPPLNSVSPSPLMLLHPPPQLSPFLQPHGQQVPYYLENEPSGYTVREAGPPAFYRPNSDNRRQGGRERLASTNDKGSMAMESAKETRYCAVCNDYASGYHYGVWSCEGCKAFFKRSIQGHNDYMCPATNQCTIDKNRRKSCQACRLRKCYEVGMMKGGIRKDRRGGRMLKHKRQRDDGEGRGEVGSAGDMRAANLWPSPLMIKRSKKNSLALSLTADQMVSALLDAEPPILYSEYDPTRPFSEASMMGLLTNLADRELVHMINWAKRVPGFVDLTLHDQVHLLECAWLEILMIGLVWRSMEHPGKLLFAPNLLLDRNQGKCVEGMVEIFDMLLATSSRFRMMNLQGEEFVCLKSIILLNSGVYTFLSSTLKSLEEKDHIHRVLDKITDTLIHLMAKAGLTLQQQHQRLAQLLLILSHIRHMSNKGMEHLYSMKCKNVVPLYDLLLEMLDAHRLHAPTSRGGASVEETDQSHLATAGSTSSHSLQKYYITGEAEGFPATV
T3 sequence (P00519 with tags, fused parts or gaps): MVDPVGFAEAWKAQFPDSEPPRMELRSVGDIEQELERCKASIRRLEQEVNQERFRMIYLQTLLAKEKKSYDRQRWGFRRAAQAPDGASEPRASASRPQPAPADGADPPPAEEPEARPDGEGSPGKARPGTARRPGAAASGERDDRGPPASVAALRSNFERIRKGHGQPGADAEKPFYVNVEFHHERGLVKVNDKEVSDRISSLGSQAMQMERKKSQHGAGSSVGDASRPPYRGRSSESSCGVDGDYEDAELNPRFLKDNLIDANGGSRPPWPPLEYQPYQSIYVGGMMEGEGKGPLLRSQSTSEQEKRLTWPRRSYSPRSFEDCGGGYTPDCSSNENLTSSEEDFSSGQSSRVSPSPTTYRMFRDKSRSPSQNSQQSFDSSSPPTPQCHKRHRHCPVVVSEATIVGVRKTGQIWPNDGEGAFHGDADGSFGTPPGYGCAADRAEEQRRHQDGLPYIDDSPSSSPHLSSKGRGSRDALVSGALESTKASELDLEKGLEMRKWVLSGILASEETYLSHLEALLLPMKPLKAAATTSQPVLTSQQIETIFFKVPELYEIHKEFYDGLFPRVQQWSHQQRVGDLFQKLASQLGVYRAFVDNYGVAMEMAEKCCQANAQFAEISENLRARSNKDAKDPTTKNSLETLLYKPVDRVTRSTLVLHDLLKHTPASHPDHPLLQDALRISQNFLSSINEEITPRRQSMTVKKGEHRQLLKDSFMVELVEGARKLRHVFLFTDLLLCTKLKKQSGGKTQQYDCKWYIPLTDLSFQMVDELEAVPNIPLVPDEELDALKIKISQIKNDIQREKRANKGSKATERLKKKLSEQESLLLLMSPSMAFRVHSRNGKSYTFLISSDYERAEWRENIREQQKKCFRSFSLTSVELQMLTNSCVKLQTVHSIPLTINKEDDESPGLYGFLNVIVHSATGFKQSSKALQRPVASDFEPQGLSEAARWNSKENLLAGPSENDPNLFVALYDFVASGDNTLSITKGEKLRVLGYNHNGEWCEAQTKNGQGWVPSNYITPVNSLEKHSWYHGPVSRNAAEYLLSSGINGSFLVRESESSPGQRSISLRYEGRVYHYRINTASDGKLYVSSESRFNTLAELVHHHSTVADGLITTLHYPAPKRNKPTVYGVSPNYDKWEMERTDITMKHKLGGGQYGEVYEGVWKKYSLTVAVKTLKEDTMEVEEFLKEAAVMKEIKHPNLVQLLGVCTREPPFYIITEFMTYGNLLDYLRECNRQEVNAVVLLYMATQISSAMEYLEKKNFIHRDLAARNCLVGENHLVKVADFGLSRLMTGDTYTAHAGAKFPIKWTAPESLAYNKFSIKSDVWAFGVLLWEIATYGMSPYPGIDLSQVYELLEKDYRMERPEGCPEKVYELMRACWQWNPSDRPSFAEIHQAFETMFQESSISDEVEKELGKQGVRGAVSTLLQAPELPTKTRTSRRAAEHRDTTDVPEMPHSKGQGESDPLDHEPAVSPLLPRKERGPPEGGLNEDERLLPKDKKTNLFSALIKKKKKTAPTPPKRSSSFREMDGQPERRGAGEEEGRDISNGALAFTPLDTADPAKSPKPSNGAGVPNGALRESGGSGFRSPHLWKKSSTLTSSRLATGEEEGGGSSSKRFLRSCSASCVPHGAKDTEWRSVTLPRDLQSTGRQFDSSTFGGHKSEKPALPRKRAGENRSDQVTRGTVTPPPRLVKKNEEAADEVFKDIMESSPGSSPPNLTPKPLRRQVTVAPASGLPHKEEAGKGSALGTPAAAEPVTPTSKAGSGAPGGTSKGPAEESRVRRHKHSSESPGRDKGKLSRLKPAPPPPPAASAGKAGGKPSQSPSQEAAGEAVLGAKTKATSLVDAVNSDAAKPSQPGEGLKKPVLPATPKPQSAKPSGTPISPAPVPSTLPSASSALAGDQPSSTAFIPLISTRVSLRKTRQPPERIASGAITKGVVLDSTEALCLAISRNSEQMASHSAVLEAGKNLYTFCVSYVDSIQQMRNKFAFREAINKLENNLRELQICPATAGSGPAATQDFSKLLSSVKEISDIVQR
T3 sequence (Q13501 2-440 partner limits assumed): as the sequence (Q13501 2-440 partner limits assumed) above

O=C(O)c1ccc2c(c1)nc(Nc1cccc(NCCOCCOCCNC[C@@H](O)COc3ccc(OCc4ccccc4)c(OCCc4ccccc4)c3)c1)c1ccncc12 [Example 19, (R)-5-((3-((2-(2-(2-((3-(4-(benzyloxy)-3-phenethoxyphenoxy)-2-hydroxypropyl)amino)ethoxy)ethoxy)ethyl)amino)phenyl)amino)benzo[c][2,6]naphthyridine-8-carboxylic acid]
degradation of target protein CK2 (decrease in level vs Control) [1]: can be degraded

O=C(O)c1ccc2c(c1)nc(Nc1cc(Cl)cc(NCCOCCOCCOCCOCCOCCNC[C@@H](O)COc3ccc(OCc4ccc(F)cc4)c(OCc4ccc(F)cc4)c3)c1)c1ccncc12 [Example 24, (R)-5-((3-((21-(3,4-bis((4-fluorobenzyl)oxy)phenoxy)-20-hydroxy-3,6,9,12,15-pentaoxa-18-azahenicosyl)amino)-5-chlorophenyl)amino)benzo[c][2,6]naphthyridine-8-carboxylic acid]
degradation of target protein Bcl-2 (decrease in level vs Control) [2]: can be degraded

CCN(CCCCNCCOCCOCCNCc1ccc(OCc2ccccc2)c(OCc2ccccc2)c1)CCOc1ccc(C(=O)c2c(-c3ccc(O)cc3)sc3cc(O)ccc23)cc1 [Example 23, (4-((1-(3,4-bis(benzyloxy)phenyl)-16-ethyl-5,8-dioxa-2,11,16-triazaoctadecan-18-yl)oxy)phenyl) (6-hydroxy-2-(4-hydroxyphenyl)benzo[b]thiophen-3-yl)methanone]
degradation of target protein ERα (decrease in level vs Control) [3]: can be degraded

Cc1nc(Nc2ncc(C(=O)Nc3c(C)cccc3Cl)s2)cc(N2CCN(CCNCCOCCOCCNC[C@@H](O)COc3ccc(OCc4ccccc4)c(OCCCc4ccccc4)c3)CC2)n1 [Example 18, (R)-2-((6-(4-(15-(4-(benzyloxy)-3-(3-phenylpropoxy)phenoxy)-14-hydroxy-6,9-dioxa-3,12-diazapentadecyl)piperazin-1-yl)-2-methylpyrimidin-4-yl)amino)-N-(2-chloro-6-methylphenyl)thiazole-5-carboxamide]
degradation of target protein c-Abl (decrease in level vs Control) [4]: can be degraded
degradation of target protein BCR-Abl (decrease in level vs Control) [5]: can be degraded
